In publication PMC10825133, “Repurposing proteasome inhibitors for improved treatment of triple-negative breast cancer” (Cell Death Discovery, 2024):

Experiments:
[1] = test system: CAL-148 cells; experiment: Resazurin-based cell viability assay, monotherapy drug screen; parameters: species or system human; AUC: unit not given beside the values; conditions: CAL-148; for AUC: area under the dose response curve, 24 h; for GRmax: drug efficacy at highest tested dose (<0 cytotoxic, 0 cytostatic, >0 partial growth inhibition)
Procedure: (§1) Eighteen pharmaceutical compounds were purchased from Selleckchem (Supplementary Table 2). Stock solutions were prepared using dimethyl sulfoxide (DMSO; Merck), physiological saline (sodium chloride 0.9%) or Milli-Q water, and stored at −80 °C. […] Matched concentration solvent vehicle controls were used for each drug concentration. The drug screens were performed in triplicate and repeated three (monotherapy) or two (combination therapy) times (Fig. 7).
(§2) The optimal seeding density per 96-well was determined for each cell line as previously described. The cells were seeded at a density of 4.0 × 10^3 to 7.5 × 10^3 (cell type dependent) in 96-well clear, flat-bottom microplates (Corning Life Sciences, Sigma-Aldrich) in 100 µl complete culture medium (Supplementary Table 1) and cultured for 24 h. Cell viability was determined using the resazurin assay in untreated cells at the time of plating (t = 0) and treated cells after 24 h drug treatment (Fig. 7). Percentage cell viability was calculated as 100% × (absorbance of treated cells – absorbance of background controls) / (absorbance of matched solvent vehicle controls – absorbance of background controls). The area under the curve (AUC), half-maximal inhibitory concentration (IC50), drug potency (GR50), and drug efficacy (GRmax) were determined for each compound using the GRmetrics (version 1.20.0) package in R. The monotherapy data were evaluated with the IDACombo (version 1.0.2) package in R to predict potential drug combinations (Table 1). SynergyFinder (version 3.2.10) package in R was used to identify synergistic drug combinations.
(§3) Eighteen pharmaceutical compounds were purchased from Selleckchem. […] The solubility of the compound was enhanced by pre-heating the solvent (lukewarm), if necessary. […] The stock solutions were stored at -80°C. […] Matched concentration solvent vehicle controls were used for each drug concentration. The drug screens were performed in triplicate and repeated three times for the monotherapies and twice for the combination treatments. The drug(s) and corresponding controls were plated in 96-well PCR plates (VWR) and stored at -20°C (Fig. 6). The drug plates were thawed, centrifuged (3000 rpm for 30s), and acclimatized to RT before the drugs were added to the cells. New drug plates were prepared for each drug screen.
Cell viability was measured daily (day 0 [plating day] to day 4) using 0.2 mg/ml resazurin solution prepared from resazurin sodium salt (Fisher Scientific) dissolved in sterile 1xPBS (ThermoFisher Scientific). Before use, the resazurin solution was brought to RT before 10 µl (10% of cell medium volume) was added to each 96-well and incubated for 4h at 37°C. […] The slope of the curve was used to determine the optimal seeding density, i.e., the highest seeding density with linear growth between days 1 and 3.
(§4) The cells were seeded at a density of 4.0x10^3 to 7.5x10^3 (cell type-dependent) in 96-well clear, flat-bottom microplates (Corning Life Sciences, Sigma-Aldrich) in 100 µl culture medium supplemented with 10% FBS and cultured for 24h. Cell viability was determined using the resazurin assay after 24h drug treatment (Fig. 6). Percentage cell viability was calculated as 100% × (absorbance of treated cells – absorbance of background controls) / (absorbance of matched solvent vehicle controls – absorbance of background controls). Normalized growth rate inhibition (GR) was assessed using the absorbance of untreated cells after the time of plating (t = 0). […] For combination treatment, the monotherapy data were evaluated with the IDACombo (version 1.0.2)[20] package in R to predict potential drug combinations (Table 1). SynergyFinder (version 3.2.10)[21] package in R was used to identify synergistic drug combinations.

[2] = test system: BT-549 cells; experiment: as above; parameters: species or system human; AUC: scale not given here; conditions: BT-549; for AUC: area under the dose response curve, 24 h; for GRmax: drug efficacy at highest tested dose (<0 cytotoxic, 0 cytostatic, >0 partial growth inhibition)
Procedure: (§5) Eighteen pharmaceutical compounds were purchased from Selleckchem. […] The stock solutions were stored at -80°C. […] New drug plates were prepared for each drug screen.
(§6) To determine the optimal seeding density and ensure that the cells were in the exponential phase during the duration of the experiment (approx. 52h), each cell line (BT-549, CAL-148, HCC1806, HCC38, HCC70, MCF-10A, MCF-7, MDA-MB-436, MDA-MB-453, and MDA-MB-468) was seeded at different concentrations (1000 to 16000 cells) per 96-well, as previously described. Cell viability was measured daily (day 0 [plating day] to day 4) using 0.2 mg/ml resazurin solution prepared from resazurin sodium salt (Fisher Scientific) dissolved in sterile 1xPBS (ThermoFisher Scientific). Before use, the resazurin solution was brought to RT before 10 µl (10% of cell medium volume) was added to each 96-well and incubated for 4h at 37°C. The absorbance was measured with a 560 nm excitation filter and a 615 nm emission filter in a Wallac 1420 VICTOR2™ microplate reader (Perkin Elmer). The slope of the curve was used to determine the optimal seeding density, i.e., the highest seeding density with linear growth between days 1 and 3.

[3] = test system: HCC1806 cells; experiment: as above; parameters: species or system human; AUC: scale not given here; conditions: HCC1806; for AUC: area under the dose response curve, 24 h; for GRmax: drug efficacy at highest tested dose (<0 cytotoxic, 0 cytostatic, >0 partial growth inhibition)
Procedure: as §5, §6

[4] = test system: HCC38 cells; experiment: as above; parameters: species or system human; AUC: scale not given here; conditions: HCC38; for AUC: area under the dose response curve, 24 h; for GRmax: drug efficacy at highest tested dose (<0 cytotoxic, 0 cytostatic, >0 partial growth inhibition)
Procedure: as §5, §6

[5] = test system: HCC70 cells; experiment: as above; parameters: species or system human; AUC: scale not given here; conditions: HCC70; for AUC: area under the dose response curve, 24 h; for GRmax: drug efficacy at highest tested dose (<0 cytotoxic, 0 cytostatic, >0 partial growth inhibition)
Procedure: as §5, §6

[6] = test system: MCF-10A cells; experiment: as above; parameters: species or system human; AUC: scale not given here; conditions: for AUC: area under the dose response curve, 24 h; for GRmax: drug efficacy at highest tested dose (<0 cytotoxic, 0 cytostatic, >0 partial growth inhibition)
Procedure: as §5, §6

[7] = test system: MCF-7 cells; experiment: as above; parameters: species or system human; AUC: scale not given here; conditions: MCF-7; for AUC: area under the dose response curve, 24 h; for GRmax: drug efficacy at highest tested dose (<0 cytotoxic, 0 cytostatic, >0 partial growth inhibition)
Procedure: as §5, §6

[8] = test system: MDA-MB-436 cells; experiment: as above; parameters: species or system human; AUC: scale not given here; conditions: MDA-MB-436; for AUC: area under the dose response curve, 24 h; for GRmax: drug efficacy at highest tested dose (<0 cytotoxic, 0 cytostatic, >0 partial growth inhibition)
Procedure: as §5, §6

[9] = test system: MDA-MB-453 cells; experiment: as above; parameters: species or system human; AUC: scale not given here; conditions: MDA-MB-453; for AUC: area under the dose response curve, 24 h; for GRmax: drug efficacy at highest tested dose (<0 cytotoxic, 0 cytostatic, >0 partial growth inhibition)
Procedure: as §5, §6

[10] = test system: MDA-MB-468 cells; experiment: as above; parameters: species or system human; AUC: scale not given here; conditions: MDA-MB-468; for AUC: area under the dose response curve, 24 h; for GRmax: drug efficacy at highest tested dose (<0 cytotoxic, 0 cytostatic, >0 partial growth inhibition)
Procedure: as §5, §6

[11] = test system: eight TNBC cell lines (BT-549, CAL-148, HCC1806, HCC38, HCC70, MDA-MB-436, MDA-MB-453, MDA-MB-468); experiment: Monotherapy drug screen, mean across the TNBC cell lines
Procedure: as §1, §2, §3, §4

| SMILES | AUC [1] | GRmax [1] | AUC [2] | GRmax [2] | AUC [3] | GRmax [3] | AUC [4] | GRmax [4] | AUC [5] | GRmax [5] | AUC [6] | GRmax [6] | AUC [7] | GRmax [7] | AUC [8] | GRmax [8] | AUC [9] | GRmax [9] | AUC [10] | GRmax [10] | also measured |
| --- | --- | --- | --- | --- | --- | --- | --- | --- | --- | --- | --- | --- | --- | --- | --- | --- | --- | --- | --- | --- | --- |
| O=[N+]([O-])c1ccc(S(=O)(=O)N2CCN(c3ccnc4cc(Cl)ccc34)CC2)c([N+](=O)[O-])c1 [VR-23] | 1.0 | 0.95 | 0.98 | 0.85 | 1.0 | 0.93 | 1.0 | 0.95 | 0.98 | 0.82 | 1.0 | 1.0 | 0.98 | 0.82 | 1.0 | 1.0 | 0.99 | 0.40 | 0.97 | 0.74 | IC50 ([7]; 24 h drug treatment, read-out: IC50): 6 µM; cytotoxic effect at the highest dose [11]: lowest cytotoxic effects |
| CCCc1ccc(OCC(=O)N(Cc2nc(-c3cccnc3)no2)C(C)C)cc1 [PI-1840] | 1.0 | 1.0 | 0.99 | 1.0 | 1.0 | 0.98 | 1.0 | 1.0 | 1.0 | 1.0 | 1.0 | 1.0 | 1.0 | 0.97 | 1.0 | 1.0 | 1.0 | 0.93 | 0.98 | 0.96 | cytotoxic effect at the highest dose [11]: lowest cytotoxic effects |
